Test results taken from patent US11590185B2, “Antioxidant composition comprising Sargassum serratifolium extract or fraction thereof as active ingredient” (PUKYONG NATIONAL UNIVERSITY INDUSTRY-UNIVERSITY COOPERATION …, priority 2015, dated 2023).

Experiments:
[1] = DPPH radical scavenging activity; assay type: biochemical; details: DPPH 200 μM, 30 minutes, 517 nm
Description: For the measurement, 100 μl DPPH having a concentration of 200 μM and 100 μl the sample were mixed in a 96-well plate, and they reacted at room temperature for about 30 minutes. Then, the absorbance thereof was measured at 517 nm using a microplate reader. BHT was used as a positive control. The concentration was compared at the same as that of the sample.
DPPH radical scavenging activity was calculated by the method as described below. Radical scavenging activity (%)=(ADPPH−Asample)/ADPPH×100
For the measurement, 100 μl DPPH having a concentration of 200 μM and 100 μl the sample were mixed in a 96-well plate, and they reacted at room temperature for about 30 minutes. Then, the absorbance thereof was measured at 517 nm using a microplate reader. BHT was used as a positive control. The concentration thereof was compared to the same as that of the sample.
DPPH radical scavenging activity was calculated by the method as described below.

[2] = ABTs assay (ABTs cation scavenging); assay type: biochemical; details: 6 minutes, 732 nm
Description: The ABTs assay is similar to the DPPH assay but differs in that antioxidative activity is measured by generating free radicals through chemical reactions. ABTs are reacted with potassium persulfate to generate ABTs […] radicals, which react with H-donors such as phenolic compounds to be converted to colorless ABTs. Accordingly, the degree of antioxidative activity may be determined by measuring the amount of ABTs consumed by reacting with a sample containing a phenolic compound.
ABTs antioxidative activity was measured by partially modified Van den Berg (1999) and others using the discoloration of ABTs radical-specific green color by antioxidants.
(§1) Potassium persulfate was added to 7 mM ABTs solution at a final concentration of 2.4 mM. They reacted in the dark for 12 hours to 16 hours at R/T so as to produce ABTs cations. The resulting ABTs cation was diluted to be used, having an absorbance value of 0.7±0.02. […] The absorbance thereof was measured at 732 nm. The radical scavenging activity was calculated from the measured values as follows. […]
as §1, with “mM ABTS” for “mM ABTs”, “mM. […]” for “mM. They reacted in the dark for 12 hours to 16 hours at R/T so as to produce ABTs cations.”

[3] = Hydroxyl radical scavenging (deoxyribose test); assay type: biochemical; details: 37° C. 1 hour, 532 nm
Description: Hydroxyl radicals (—OH) are the most reactive radicals among oxygen radicals, which occur during aerobic metabolism in the human body. These radicals damage peripheral cells to create collateral living body molecules. A deoxyribose test was performed so as to measure the ability to scavenge hydroxyl radicals. Hydroxyl radicals attack deoxyribose to create small fragments. Some of which are pink when added with TBA (thiobarbituric acid) under an acidic pH environment, so the degree of damage by hydroxyl radicals is measured by absorbance at 532 nm.
Experimental methods described in Chandini, Ganesan, and Bhaskar (Chandini, S. K., Ganesan, p., and Bhaskar, N. (2008) In vitro antioxidant activities of three selected brown seaweeds of India. Food Chemistry, 107, 707-713) were modified to be used. […] 1 ml the sample to be measured was mixed with the working solution, and 0.1 ml ascorbic acid (1 mM) is added to form Fe2+−EDTA mixture which is an […] of ferric chloride (FeCl3) and ethylenediamine tetraacetic acid (EDTA). […] The absorbance thereof was measured. […]
Experimental methods described in Chandini, Ganesan, and Bhaskar (Chandini, S. K., Ganesan, p., and Bhaskar, N. (2008) In vitro antioxidant activities of three selected brown seaweeds of India. Food Chemistry, 107, 707-713) were modified to be used. […] The absorbance thereof was measured. […]

[4] = test system: 661W photoreceptor cells; test: Cell viability of 661W cells under atRAL oxidative stress (MTS); assay type: cell-based, mouse; details: 24 hours; for viability at 0.5 µM: Mus musculus, 661W, 0.5 μM compound with atRAL 1.8 μM
Description: In detail, 661W photoreceptor cells were cultured in 96-wells at a concentration of 3×10^3 cells/well and treated with atRAL having a concentration of 1.8 μM (Sigma Aldrich, St. Louis, Mo., USA) for 24 hours. Then, the medium was replaced with medium containing MTS reagent, and they were cultured for 1 hour. The absorbance thereof was measured at 490 nm, and the results were compared to determine cell viability. The cell viability thereof was measured by Celltiter^96 Aqueous One solution assay kit (Promega).

[5] = test system: reactive oxygen species in 661W photoreceptor cells; test: Reactive oxygen species in atRAL-treated 661W cells (DCFH-DA, flow cytometry); assay type: cell-based, mouse; details: 30 minutes
Description: For reference, 2′,7′-dichlorodihydrofluorescein diacetate (DCFH-DA) converts to DCF, which expresses fluorescence in response to oxidative stress in cells. Therefore, the expression of DCF in cells is used as an indicator of the degree of oxidative stress.
(§2) In order to examine the antioxidative effect of the Sargassum serratifolium ethanol extract and the compounds separated therefrom of the present invention, atRAL (1.8 μM) and Sargassum serratifolium ethanol extract (0.5 μg/mL), sargachromenol (0.5 μM), sargahydroquinoic acid (0.5 μM), or sargaquinoic acid (1.0 μM) were added to medium mixed with DCFH-DA (20 μM), and the photoreceptor cells were treated with them and cultured for 30 minutes. Then, the cells were washed with PBS, and the cells were recovered. The cells expressing the fluorescence were measured using flow cytometry.
as §2, with “acid (0.5 μM) or sargaquinoic” for “acid (0.5 μM), or sargaquinoic”

[6] = test system: malondialdehyde (MDA) production in 661W photoreceptor cells; test: Malondialdehyde (MDA) denatured protein in atRAL-treated 661W cells (MDA immunoblot); assay type: cell-based, mouse; details: 2 hours; for expression level of MDA-denatured protein compared with group treated with atRAL only: sargachromenol 0.5 μM, sargahydroquinoic acid 0.5 μM or sargaquinoic acid 1.0 μM, with atRAL 1.8 μM
Description: For reference, the malondialdehyde (MDA) is the result of lipid peroxidation by excessive oxidative stress in cells, and thus the amount of MDA in cells is a factor to measure the degree of oxidative stress.
(§3) In detail, samples of each of Sargassum serratifolium ethanol extract and the compounds separated therefrom were mixed with a specific amount of atRAL (1.8 μM) and Sargassum serratifolium ethanol extract (0.5 μg/mL), sargachromenol (0.5 μM), sargahydroquinoic acid (0.5 μM), or sargaquinoic acid (1.0 μM). The photoreceptor cells were treated with mixtures thereof. Then, they were cultured for 2 hours. The cells were then washed with PBS and the intracellular proteins were recovered. The number of proteins denatured by the lipid peroxides in cells was analyzed by protein immunoassay using MDA immunoblot kit (Cell biolabs).
as §3, with “acid (0.5 μM) or sargaquinoic” for “acid (0.5 μM), or sargaquinoic”, “treated with mixtures. Then, they” for “treated with mixtures thereof. Then, they”

[7] = test system: 661W photoreceptor cells; test: Cytotoxicity on 661W photoreceptor cells (MTS); assay type: cell-based, mouse; details: 661W cells, separated compounds
Description: (§4) 661W photoreceptor cells were cultured in 96-wells at a concentration of 3×10^3 cells/well. Then, they were treated with 1.0 μg/ml Sargassum serratifolium ethanol extract or compounds separated therefrom (sargahydroquinoic acid (SHQ), sargachromenol (SCM), and sargaquinoic acid (SQA)) at a concentration of 1.0 μM and cultured for 24 hours. Then, the medium was replaced with medium containing MTS reagent. Then, they were cultured for 1 hour. Cell viability was measured by measuring the absorbance at 490 nm and comparing the results. The cell viability thereof was analyzed by Celltiter^96 Aqueous One solution assay kit (Promega).
as §4, with “viability” for “viability thereof”

[8] = compound 0.5 μM and atRAL 1.8 μM

Cc1cc(C(C)(C)C)c(O)c(C(C)(C)C)c1 [BHT]
DPPH (IC50, μg/ml) [1]: 11.18 ± 0.15 µg/mL | ABTs (IC50, μg/ml) [2]: 7.77 ± 0.74 µg/mL | OH radical (IC50, μg/ml) [3]: 1.675 ± 0.21 µg/mL

CC(C)=CCC/C(=C/CC/C(C)=C/CCC1(C)C=Cc2cc(O)cc(C)c2O1)C(=O)O (stereo not drawn) [sargachromenol]
viability at 0.5 µM [4]: > 90% | fluorescence expression level (DCF) reduced compared to group treated with atRAL only [5, 8]: 76% | fluorescence expression level (DCF) reduced compared to group treated with atRAL only ([5]; compound 0.5 μM and atRAL 1.8 μM, listed as SCM): ~77% | expression level of MDA-denatured protein compared with group treated with atRAL only [6]: effectively reduced

CC(C)=CCC/C(=C/CC/C(C)=C/CC/C(C)=C/Cc1cc(O)cc(C)c1O)C(=O)O [sargahydroquinoic acid]
viability at 0.5 µM [4]: > 90% | fluorescence expression level (DCF) reduced compared to group treated with atRAL only [5, 8]: 77% | fluorescence expression level (DCF) reduced compared to group treated with atRAL only ([5]; compound 0.5 μM and atRAL 1.8 μM, listed as SHQ): about 76% | expression level of MDA-denatured protein compared with group treated with atRAL only [6]: effectively reduced

CC1=C(/C=C/C(C)=C/C=C/C(C)=C/C=O)C(C)(C)CCC1 [atRAL, all-trans-retinal, reference compound]
cell viability reduced in the only atRAL-treated group ([4]; atRAL 1.8 μM alone): about 55% | fluorescence expression level (DCF) higher than that of the control group ([5]; atRAL 1.8 μM only): about 80% | expression level of protein denatured by MDA compared with the control ([6]; atRAL 1.8 μM only): increased

CC(C)=CCC/C(=C/CC/C(C)=C/CC/C(C)=C/CC1=CC(=O)C=C(C)C1=O)C(=O)O [sargaquinoic acid]
concentration up to which there was no cytotoxicity [7]: ≤ 1000 nM | viability at 0.5 µM [4]: > 90% | fluorescence expression level (DCF) reduced compared to group treated with atRAL only ([5]; compound 1.0 μM and atRAL 1.8 μM): 73% | expression level of MDA-denatured protein compared with group treated with atRAL only [6]: effectively reduced
